Assay [1] deals with T1, Retinoic acid receptor RXR-alpha (Homo sapiens, UniProt P19793).
T1 sequence (P19793 whole entry): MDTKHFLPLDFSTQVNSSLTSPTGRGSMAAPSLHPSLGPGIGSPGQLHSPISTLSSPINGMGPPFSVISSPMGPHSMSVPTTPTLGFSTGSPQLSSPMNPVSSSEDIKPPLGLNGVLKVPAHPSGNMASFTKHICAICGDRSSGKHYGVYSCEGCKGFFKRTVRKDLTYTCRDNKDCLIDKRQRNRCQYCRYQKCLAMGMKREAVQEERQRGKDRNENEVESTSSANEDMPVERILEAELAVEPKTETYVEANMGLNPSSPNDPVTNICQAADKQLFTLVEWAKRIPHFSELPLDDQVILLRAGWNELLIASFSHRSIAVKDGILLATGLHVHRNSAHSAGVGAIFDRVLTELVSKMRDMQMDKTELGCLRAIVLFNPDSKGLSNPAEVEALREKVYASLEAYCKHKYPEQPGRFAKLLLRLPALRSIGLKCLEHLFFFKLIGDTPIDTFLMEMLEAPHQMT
As to the kind of experiment: (§1) Agonist activity at human RXRalpha expressed in […] cells by luciferase reporter gene assay. Type of assay: functional, cell-based, COS-7. On the technique in general: Reporter assays use an easily measured gene product as a stand-in for the process of interest.

In assay [2] the target is T2, Retinoic acid receptor RXR-alpha (Homo sapiens) (UniProt P19793).
T2 sequence (whole entry): T1 sequence (P19793 whole entry)
As to the kind of experiment: Agonist activity at human RXRalpha expressed in […] cells at 1 uM by luciferase reporter gene assay. Type of assay: functional, cell-based. The following applies: COS-7.

In assay [3] the target is T2, Retinoic acid receptor RXR-alpha (Homo sapiens). The assay is described as §1. Type of assay: functional, cell-based. The following applies: COS-7.

Activity calls are given as the source filed them. The calls are words filed in the database; no cut-off is given here.

One may read the EC50 as the concentration at which the effect is half-maximal. Higher therefore signals weaker potency. `CCN(c1ccc(C(=O)O)cn1)c1ccc2c(C(F)(F)F)cc(=O)n(CC)c2n1` had an EC50 in assay [1] of 1000 nM.
As to `CCN(c1ccc(C(=O)O)cn1)c1ccc2c(C(F)(F)F)cc(=O)n(CC(C)C)c2n1`, in assay [1], the EC50 worked out at 1000 nM. Also, the result in assay [2] was Active.
In assay [1], `CCN(c1ccc(C(=O)O)cn1)c1ccc2c(C(F)(F)F)cc(=O)n(C)c2n1` displayed an EC50 of 1000 nM.
With `CCN(c1ccc(C(=O)O)cn1)c1ccc2c(C)cc(=O)n(C)c2n1`, the outcome in assay [3] was inactive.

The record behind these values is ChEMBL document CHEMBL1221261, “Fluorescent retinoid X receptor ligands for fluorescence polarization assay” (Bioorg Med Chem Lett, 2010).
